From patent US20050004018A1, “Use of antitumoral compound in cancer therapy” (priority 2001, published 2005)

Experiments:
dogs = conditions: cited from earlier work
canine progenitor cells = conditions: cited from earlier work
cancer patients [1] = assay: phase I clinical trial, 3 hours iv infusion weekly for 3 consecutive weeks every 4 weeks; assay type: in vivo, human
Method: A phase I clinical trial was carried out with the following protocol:
Dose schedule: ET-743 will be administered every week as a 3hours iv infusion for 3 consecutive weeks every 4 weeks.
Starting dose and dose escalation: The starting dose will be 300 μg/m^2 weekly of ET-743 given as a intravenous infusion over 3 hours for 3 consecutive weeks every 4 weeks. Patients will be sequentially enrolled into the following dose cohorts beginning at dose Level 1. A minimum cohort size of 3 patients will be treated at each of the dose levels.
Accrual at the next higher dose level: At least 1 patient at each dose level must have completed 1 cycle of therapy and two patients must have completed treatment on day 15 before a new patient can be treated at the next highest dose. Conditions for retreatment: Patients are eligible for retreatment […] intolerable toxicity, the patient desires further treatment, and fulfill the eligibility criteria. Dose Limiting Toxicities (DLTs)
Dose limiting toxicities (DLT) will be defined as follows: • ANC <500/μL for longer than 5 days. • ANC <500/μL accompanied by fever (at least 100.5° F.). • Platelets <25,000/μL. • Any grade 3-4 nonhematological toxicity except nausea/vomiting (provided the patient is receiving an optimal antiemetic regimen consisting of dexamethasone and a serotonin antagonist on an optimal dose-schedule for prophylaxis and management), alopecia. Grade 3 or 4 elevation in trasaminases that result in either omission of 2 scheduled treatments within a cycle or delay in the initiation of a subsequent course exceeding 2 weeks. • Missing at least 2 scheduled treatments during a single course due to drug-induced toxicity (missed doses will not be made up). • Delay in the initiation of a subsequent course of treatment exceeding 2 weeks. Determination of the Maximum Tolerated Dose (MTD)
Cohort of 3 patients will be treated at each dose level. If no DLT is seen during the first cycle in the cohort of patients at any given dose level, new patients may be treated at the next higher level.
If any patient encounters drug-induced DLT during either cycle 1 or 2, a maximum of 6 patients may be treated at that level. If DLT is not observed in the additional patients, new patients may be treated at the next higher dose level.
If at least 2 patients experience DLT at any given dose level, this dose level will be considered the Maximum Tolerated Dose (MTD). However, it is possible that additional patients may experience DLT due to the timing of patient enrollment into that dose level.
Once an MTD level is established, subsequent patients should be treated at the next lower dose level. Intermediate doses may be used in some instances and flexibility is an integral part of the protocol. If two or more patients experience DLT at the lower dose level, then the MTD has again been established and additional patients will be treated at the next lower dose (unless sufficient numbers of patients have already been treated at that dose level).
The RD is defined as the highest dose level at which less than 2 of 6 patients experience DLT during cycles 1 or 2. At the RD, sufficient numbers of patients will be accrued so at least 6 patients receive at least 2 cycles of therapy, and at least 4 patients receive at least 4 courses of treatment.
This trial was launched in May 00 and last patient was included in March 02. 31 patients were treated.
Tumours included: Sarcomas (19), UOT (1), Lung (1), Ovary (4), Breast (2), Uterus (1), Melanoma (2), Colorectal (1)

murine progenitor cells = conditions: cited from earlier work
cancer patients [2] = conditions: 1-hr intravenous infusion every 3 weeks; cited from earlier work
[3] = 3 hour weekly ×3/4 weeks infusion, per patient, number (%)

## ecteinascidin 743 [ET-743]
dogs; following administration
  further toxicity in dogs: vomiting and diarrhoea
dogs; single or fractionated dose, intravenous, dogs
  toxicity: reversible hematological and hepatic toxicity
Canine progenitor cells
  sensitivity of progenitor cells: equal sensitivity of erythropoid and myeloid cells
Cancer patients [1]; 29 patients evaluated
  G3 transaminases: 10%
Cancer patients [1]; [3]
  ALT G2(%): 9(31) %
  ALT G3(%): 3(10.3) %
  ALT G4(%): 0%
  Alk Phos G2(%): 1(3.4) %
  Alk Phos G3(%): 2(6.9) %
  Alk Phos G4(%): 0%
  Bilirubin G2(%): 0%
  Bilirubin G3(%): 1(3.4) %
  Bilirubin G4(%): 0%
  Creatine Kinase G2(%): 1(3.4) %
  Creatine Kinase G3(%): 0%
  Creatine Kinase G4(%): 1(3.4) %
  Creatinine G2(%): 1(3.4) %
  Creatinine G3(%): 0%
  Creatinine G4(%): 0%
  Hemoglobin G2(%): 9(31) %
  Hemoglobin G3(%): 1(3.4) %
  Hemoglobin G4(%): 0%
  Neutrophils G2(%): 1(3.4) %
  Neutrophils G3(%): 2(6.9) %
  Neutrophils G4(%): 1(3.4) %
  Platelets G2(%): 1(3.4) %
  Platelets G3(%): 0%
  Platelets G4(%): 0%
Cancer patients [1]; Weekly schedule
  Grade 3-4 ALT: 10.3%
  Grade 3-4 Bilirubin: 3.4%
  Grade 3-4 Creatinine: 0%
  Grade 3-4 Creatinine Kinase: 3.4%
  Grade 3-4 Hemoglobin: 3.4%
  Grade 3-4 Neutrophils: 10.3%
  Grade 3-4 Platelets: 0%
  Serious renal toxicity (G3-4): has not been seen
Cancer patients [1]; at the 4th level (650)
  DLT defining the MTD: Long lasting grade 3 neutropenia, and g3 Bilirubin toxicity
Cancer patients [1]; ovarian cancer
  long lasting stabilizations: 2
Cancer patients [1]; patients with sarcoma
  minor responses: 2
Cancer patients [1]; per patient, 29 patients evaluated
  grade 3-4 neutropenia: 10.3%
Cancer patients [1]; sarcoma
  long lasting stabilizations: 2
Cancer patients [1]; weekly schedule vs previous schedules
  reduction of the most frequent toxicities: more than 3 times
Cancer patients [1]; weekly×3/4 weeks, 3 hour infusion
  MTD: 650 mcg/sm
Cancer patients [1]; ×3 every 4 weeks, 3 hour infusion
  recommended dose: 580 mcg/sm
Murine progenitor cells
  sensitivity of progenitor cells: equal sensitivity of erythropoid and myeloid cells
Cancer patients [2]
  maximum tolerated dose (MTD): 1100 μg/m^2
